Data taken from the CheMixHub viscosity set.

Assay: xn = mol fraction of the nth substance listed

CCCCCl + CCC(C)O
viscosity [mPa·s], 101 kPa
Conditions	x1 = 0.0997	x1 = 0.1976	x1 = 0.3052	x1 = 0.4049	x1 = 0.497	x1 = 0.606	x1 = 0.7022	x1 = 0.8053	x1 = 0.9038
298.15 K	1.98	1.379	1.015	0.8086	0.6823	0.5809	0.5176	0.469	0.4366
313.15 K	1.234	0.9264	0.7261	0.6063	0.5279	0.4628	0.4198	0.3877	0.3663

CCCNCCC + CCC(C)O
303.15 K, 101 kPa
Conditions	viscosity [mPa·s]
x1 = 0.009464	2.442
x1 = 0.02067	2.411
x1 = 0.03223	2.381
x1 = 0.04172	2.358
x1 = 0.04996	2.336
x1 = 0.05928	2.313
x1 = 0.07049	2.286
x1 = 0.08687	2.251
x1 = 0.09038	2.238

CCCCCCCCCl + CCCCC
298 K, 101.3 kPa
Conditions	viscosity [mPa·s]
x2 = 0.1047	0.9664
x2 = 0.2064	0.8559
x2 = 0.3057	0.7414
x2 = 0.4042	0.6389
x2 = 0.5005	0.5441
x2 = 0.6018	0.4631
x2 = 0.7019	0.3926
x2 = 0.8048	0.324
x2 = 0.8982	0.2747

C1=CCCCC1 + CCCCCC
303.15 K, 101 kPa
Conditions	viscosity [mPa·s]
x1 = 0.1718	0.348
x1 = 0.2792	0.365
x1 = 0.3914	0.387
x1 = 0.5249	0.418
x1 = 0.5946	0.438
x1 = 0.6859	0.464
x1 = 0.8067	0.503
x1 = 0.9032	0.536

CC1CCCCC1 + CCCCCC
viscosity [mPa·s], 101 kPa
Conditions	293.15 K	298.15 K	303.15 K	308.15 K
x1 = 0.0401	0.3176	0.3005	0.2736	–
x1 = 0.1041	–	–	0.3003	–
x1 = 0.1042	–	0.334	0.318	0.301
x1 = 0.2002	0.3482	0.3336	0.3072	–
x1 = 0.202	–	–	0.3216	–
x1 = 0.2026	–	0.359	0.341	0.323
x1 = 0.2772	0.3681	0.3511	0.3256	–
x1 = 0.3005	–	–	0.3476	–
x1 = 0.301	–	0.373	0.354	0.335
x1 = 0.3562	0.3915	0.3713	0.3477	–
x1 = 0.3972	–	–	0.375	–
x1 = 0.4018	–	0.401	0.378	0.359
x1 = 0.4196	0.4131	0.3895	0.3654	–
x1 = 0.5015	–	–	0.4074	–
x1 = 0.5026	–	0.433	0.41	0.387
x1 = 0.5574	–	–	0.4286	–
x1 = 0.5875	0.4812	0.4512	0.4227	–
x1 = 0.6024	–	0.473	0.446	0.42
x1 = 0.6173	–	–	0.4495	–
x1 = 0.6796	0.5261	0.49	0.46	–
x1 = 0.7021	–	0.517	0.487	0.457
x1 = 0.7645	0.5729	0.5323	0.5001	–
x1 = 0.8006	–	–	0.5303	–
x1 = 0.8016	–	0.573	0.539	0.504
x1 = 0.8397	0.6187	0.5725	0.5388	–
x1 = 0.9002	–	–	0.5837	–
x1 = 0.9011	–	0.624	0.585	0.545
x1 = 0.9198	0.6688	0.6221	0.5865	–

CCOC(=O)c1ccccc1 + CCCCCC
101 kPa
Conditions	viscosity [mPa·s]
298.15 K, x2 = 0.0271	1.845
298.15 K, x2 = 0.1115	1.528
298.15 K, x2 = 0.1588	1.375
298.15 K, x2 = 0.2058	1.242
298.15 K, x2 = 0.3029	1.008
298.15 K, x2 = 0.3991	0.828
298.15 K, x2 = 0.4898	0.688
298.15 K, x2 = 0.5921	0.57
298.15 K, x2 = 0.6377	0.527
298.15 K, x2 = 0.6782	0.491
298.15 K, x2 = 0.7316	0.456
298.15 K, x2 = 0.773	0.426
298.15 K, x2 = 0.8227	0.394
298.15 K, x2 = 0.8654	0.371
298.15 K, x2 = 0.9101	0.354
298.15 K, x2 = 0.9517	0.341
303.15 K, x1 = 0.0927	0.329
303.15 K, x1 = 0.1853	0.38
303.15 K, x1 = 0.2811	0.448
303.15 K, x1 = 0.3781	0.531
303.15 K, x1 = 0.4761	0.634
303.15 K, x1 = 0.5765	0.764
303.15 K, x1 = 0.6794	0.93
303.15 K, x1 = 0.7852	1.147
303.15 K, x1 = 0.8902	1.41
308.15 K, x1 = 0.0927	0.315
308.15 K, x1 = 0.1853	0.366
308.15 K, x1 = 0.2811	0.429
308.15 K, x1 = 0.3781	0.508
308.15 K, x1 = 0.4761	0.603
308.15 K, x1 = 0.5765	0.72
308.15 K, x1 = 0.6794	0.877
308.15 K, x1 = 0.7852	1.065
308.15 K, x1 = 0.8902	1.303
308.15 K, x2 = 0.0828	1.413
308.15 K, x2 = 0.1328	1.29
308.15 K, x2 = 0.171	1.201
308.15 K, x2 = 0.2301	1.074
308.15 K, x2 = 0.2802	0.973
308.15 K, x2 = 0.3274	0.887
308.15 K, x2 = 0.3722	0.812
308.15 K, x2 = 0.4224	0.741
308.15 K, x2 = 0.4708	0.677
308.15 K, x2 = 0.5165	0.624
308.15 K, x2 = 0.5609	0.576
308.15 K, x2 = 0.6066	0.533
308.15 K, x2 = 0.6587	0.489
308.15 K, x2 = 0.7033	0.457
308.15 K, x2 = 0.7489	0.426
308.15 K, x2 = 0.7953	0.397
308.15 K, x2 = 0.8419	0.372
308.15 K, x2 = 0.8794	0.356
308.15 K, x2 = 0.9354	0.331
313.15 K, x1 = 0.0927	0.295
313.15 K, x1 = 0.1853	0.346
313.15 K, x1 = 0.2811	0.406
313.15 K, x1 = 0.3781	0.476
313.15 K, x1 = 0.4761	0.562
313.15 K, x1 = 0.5765	0.673
313.15 K, x1 = 0.6794	0.815
313.15 K, x1 = 0.7852	0.99
313.15 K, x1 = 0.8902	1.2
318.15 K, x2 = 0.0471	1.244
318.15 K, x2 = 0.1005	1.133
318.15 K, x2 = 0.149	1.036
318.15 K, x2 = 0.2038	0.939
318.15 K, x2 = 0.252	0.861
318.15 K, x2 = 0.3057	0.781
318.15 K, x2 = 0.352	0.718
318.15 K, x2 = 0.4057	0.652
318.15 K, x2 = 0.4516	0.602
318.15 K, x2 = 0.5027	0.55
318.15 K, x2 = 0.5475	0.51
318.15 K, x2 = 0.5991	0.47
318.15 K, x2 = 0.6439	0.439
318.15 K, x2 = 0.6933	0.41
318.15 K, x2 = 0.7382	0.387
318.15 K, x2 = 0.7869	0.364
318.15 K, x2 = 0.8296	0.346
318.15 K, x2 = 0.878	0.327

Cc1cccc([N+](=O)[O-])c1 + CCCCCC
303.15 K, 101.33 kPa
Conditions	viscosity [mPa·s]
x1 = 0.199	0.38
x1 = 0.416	0.58
x1 = 0.591	0.77
x1 = 0.802	1.11

CC(C)O + CCCCCCC
viscosity [mPa·s], 101 kPa
Conditions	x2 = 0.1003	x2 = 0.2009	x2 = 0.3009	x2 = 0.398	x2 = 0.5002	x2 = 0.5961	x2 = 0.6981	x2 = 0.8014	x2 = 0.9084
293.15 K	1.596	1.178	0.9242	0.7437	0.6223	0.5479	0.493	0.4607	0.436
298.15 K	1.413	1.044	0.8165	0.6851	0.5866	0.5025	0.4623	0.4268	0.4025
303.15 K	1.23	0.927	0.7388	0.62	0.5333	0.4679	0.4351	0.4137	0.3897
308.15 K	1.091	0.8401	0.6728	0.577	0.4915	0.4441	0.4083	0.3805	0.3637

CC1CCCCC1 + CCCCCCC
viscosity [mPa·s]
Conditions	293.15 K	298.15 K	303.15 K	308.15 K	323.15 K
100 kPa, x1 = 0.125	–	–	0.389	–	0.317
100 kPa, x1 = 0.25	–	–	0.411	–	0.335
100 kPa, x1 = 0.375	–	–	0.436	–	0.354
100 kPa, x1 = 0.5	–	–	0.465	–	0.375
100 kPa, x1 = 0.625	–	–	0.498	–	0.4
100 kPa, x1 = 0.75	–	–	0.538	–	0.43
100 kPa, x1 = 0.875	–	–	0.585	–	0.466
101 kPa, x1 = 0.0405	0.4128	0.3963	0.368	–	–
101 kPa, x1 = 0.1021	–	0.411	0.391	0.371	–
101 kPa, x1 = 0.1996	0.4451	0.4235	0.4003	–	–
101 kPa, x1 = 0.2033	–	0.432	0.41	0.389	–
101 kPa, x1 = 0.281	0.4637	0.4402	0.4162	–	–
101 kPa, x1 = 0.3044	–	0.451	0.427	0.403	–
101 kPa, x1 = 0.3593	0.4826	0.4568	0.4317	–	–
101 kPa, x1 = 0.4036	–	0.473	0.449	0.422	–
101 kPa, x1 = 0.4393	0.5042	0.474	0.4476	–	–
101 kPa, x1 = 0.5029	–	0.497	0.47	0.443	–
101 kPa, x1 = 0.6003	0.5514	0.5153	0.4887	–	–
101 kPa, x1 = 0.6033	–	0.526	0.496	0.467	–
101 kPa, x1 = 0.6793	0.5802	0.5399	0.512	–	–
101 kPa, x1 = 0.7038	–	0.556	0.524	0.492	–
101 kPa, x1 = 0.76	0.6141	0.571	0.5395	–	–
101 kPa, x1 = 0.8022	–	0.591	0.557	0.522	–
101 kPa, x1 = 0.84	0.6483	0.6042	0.5687	–	–
101 kPa, x1 = 0.9006	–	0.625	0.589	0.553	–
101 kPa, x1 = 0.9074	0.6821	0.6347	0.5964	–	–
